Measurements reported in article PMC3745430, “Novel Multiplexed Assay for Identifying SH2 Domain Antagonists of STAT Family Proteins” (PLoS ONE, 2013).

What was measured:
[1] = system: STAT3 nuclear translocation in HeLa cells; test: STAT3 nuclear translocation assay in oncostatin M-stimulated HeLa cells; format: cell-based; settings: for Fluorescent intensity of STAT3 in the nuclei, of the vehicle treatment: 1 h pretreatment, oncostatin M 30 ng/mL 10 min, HeLa
Description: The Cellomics STAT3 Activation Kit (Thermo Scientific) was used for the nuclear translocation assay. HeLa cells were incubated in a 96-well microplate for 24 h. Cells were pretreated with the test compounds for 1 hour, and 30 ng/mL (w/v) of oncostatin M was applied and the mixture was incubated for 10 min. The subsequent procedures were performed according to the manufacturer’s instructions. The cells were scanned with an ArrayScan VTI reader (Thermo Scientific), and analyzed with the Cytoplasm to Nucleus Translocation Application. The mean fluorescent values in the nuclei were calculated. The signals for vehicle treatment and no treatment (without oncostatin M) were represented as 100% and 0%, respectively, and the relative signal intensity was also calculated.

STAT1-SH2 = target: T1, STAT1-SH2 (Homo sapiens, UniProt P42224); test: STAT1-SH2 binding AlphaScreen assay; settings: AlphaScreen assay (Figure S8A)
T1 construct: made in house
T1 sequence (P42224 1-750): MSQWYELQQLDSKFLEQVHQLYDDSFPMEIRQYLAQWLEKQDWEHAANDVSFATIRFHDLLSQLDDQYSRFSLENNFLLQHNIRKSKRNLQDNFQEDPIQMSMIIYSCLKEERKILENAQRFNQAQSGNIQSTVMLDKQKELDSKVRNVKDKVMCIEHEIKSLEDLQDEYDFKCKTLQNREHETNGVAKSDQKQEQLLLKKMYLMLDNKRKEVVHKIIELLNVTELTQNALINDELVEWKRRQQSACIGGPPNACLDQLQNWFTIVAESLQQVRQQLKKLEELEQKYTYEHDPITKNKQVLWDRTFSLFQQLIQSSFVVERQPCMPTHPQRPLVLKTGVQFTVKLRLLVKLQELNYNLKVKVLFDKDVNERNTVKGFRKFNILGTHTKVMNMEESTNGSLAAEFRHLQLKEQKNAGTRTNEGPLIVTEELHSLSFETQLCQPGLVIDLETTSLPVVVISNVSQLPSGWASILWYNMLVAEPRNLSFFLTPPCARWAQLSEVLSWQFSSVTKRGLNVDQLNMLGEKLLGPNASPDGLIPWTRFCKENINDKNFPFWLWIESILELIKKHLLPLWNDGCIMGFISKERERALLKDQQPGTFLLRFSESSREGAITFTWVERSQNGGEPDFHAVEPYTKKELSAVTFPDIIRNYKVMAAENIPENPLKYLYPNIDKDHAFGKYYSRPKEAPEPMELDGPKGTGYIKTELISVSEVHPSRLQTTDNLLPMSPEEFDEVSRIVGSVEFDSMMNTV
Description: Both AlphaLISA and AlphaScreen are bead-based nonradioactive binding assay systems for detecting biomolecular interactions in a microplate format. The binding of the biological partners brings the donor and acceptor beads into close proximity, and AlphaLISA produces a specific signal around 615 nm and AlphaScreen emits a broad signal between 520 and 620 nm. The assays were performed in a final reaction volume of 25 µL of the assay buffer, which contained 10 mM HEPES-NaOH (pH 7.4), 50 mM NaCl, 1 mM EDTA (pH 8.0), 0.1% (w/v) NP-40, and 10 ng/µL (w/v) BSA in a 96-well microplate at 25°C. […] Streptavidin-coated donor beads (0.25 µg/well) and anti-DIG AlphaLISA acceptor beads (0.25 µg/well) were added and incubated for 90 min before the signals were measured with EnVison Xcite (PerkinElmer Life Sciences). […] Streptavidin-coated donor beads (0.25 µg/well) and anti-FITC AlphaScreen acceptor beads (0.25 µg/well) were added and incubated for 90 min before the signals were measured with EnVison Xcite. […] Streptavidin-coated donor beads (0.50 µg/well), anti-DIG AlphaLISA (0.25 µg/well), and anti-FITC AlphaScreen acceptor beads (0.25 µg/well) were added and incubated for 90 min before the signals were measured with EnVison Xcite. […] The bound state was measured by incubating the labeled peptide and the protein without test compounds. […] The IC50 value was calculated by Graph pad prism 4.0. […]

SMILES: O=C1C=CC(=NC2=C(Cl)C(=O)c3ccccc3C2=O)C=C1 [Compound 1]
- Fluorescent intensity of STAT3 in the nuclei, of the vehicle treatment ([1]; 60 µM): 51%
- Fluorescent intensity of STAT3 in the nuclei, of the vehicle treatment ([1]; 100 µM): 31%
- Effect on STAT3 nuclear translocation ([1]; HeLa cells, pretreatment before oncostatin M (Figure 6, Figure S9)): reduced the STAT3 nuclear translocation in a dose-dependent manner
- Inhibition of STAT1-SH2 binding (STAT1-SH2): inhibited neither
